Data published in US20100272853A1, “Method of Increasing the Milk and/or Meat Quantity of Silage-Fed Animals” (BASF SE, priority 2007, published 2010).

Assays:
Type in all cases: in vivo
corn [1] = assay: Strip field trials New York 2006: corn forage quality by NIRS and MILK 2006 calculated milk production
Experimental: (§1) Field trials were conducted as strip trials in farm fields in 2006 and 2008. A part of the field was treated with pyraclostrobin applied as Headline® whereas another part was left untreated. Headline® was applied at tassel emergence with 0.44 L/ha (110 g pyraclostrobin per ha) by aerial or ground application with a high clearance sprayer. Total spray volume was 93.5 to 187 L/ha for ground application and 18.7 to 46.7 L/ha for aerial application, respectively. Water was used as a carrier to prepare the spray mixture.
(§2) Trials were harvested using a commercial forage harvester when the corn crop reached a dry matter content of about 30 to 40%. The treated and untreated area of the field was harvested separately to gain total biomass yield (ton/acre). Subsequently, the harvested plant material was used for producing silage.
(§3) Forage samples from the harvested plants were taken from both the treated and untreated areas of the field. Samples were taken from the harvested material in the forage wagon following chopping with the commercial harvester. Multiple forage samples were taken for each of both treatments manually during harvesting in each of the trials, mixed in a larger container, and a subsample of 1.3 to 2.25 kg was taken. The subsamples were placed in plastic bags, sealed, cooled, and shipped immediately to Agsource Soil and Forage Laboratory, 106 North Cecil Street, Bonduel Wis. 54107, USA for Near Infrared Reflectance Spectroscopy (NIRS) analysis.
(§4) Typically, samples for NIRS analysis are first dried at 55 to 65° C. for 24 h to 48 h prior to analysis. A representative subsample thereof is then dried at 105° C. for another 12 h to 24 h to evaluate the dry matter content of the samples. Subsequently, the remaining sample is grinded and homogenized and again a representative subsample is used for the NIRS analysis. The NIRS analysis procedure uses a commercially available calibration to estimate the values for each quality parameter based on the spectral reflectance information gained. The calibrations are based on the near infra red reflectance spectra of samples with known quality data. The comparison of the spectra of the samples with unknown quality data with the spectra of the known samples allows calculating estimates for each quality parameter of interest.
(§5) NIRS analysis provided dry matter, crude protein, Acid Detergent Fibre (ADF), Neutral Detergent Fibre (NDF), and starch data. Calculations were included for moisture, adjusted crude protein, Total Digestible Nutrients (TDN), Net Energy for Lactation (NEL), Net Energy for Gain (NEG) and protein solubility.
(§6) The information was then entered into the MILK 2006 University of Wisconsin Corn Silage evaluation system. Calculations of the milk production, energy content and digestibility per ton of corn biomass were carried out using a calculation method described in:
(§7) a) Schwab, E. C., and R. D. Shaver. 2001: “Evaluation of corn silage nutritive value using MILK2000” (pages 21-24) in Proc. of 25th Forage Production and Use Symposium. WI Forage Council Annual Mtg. Eau Claire, Wis. b) Schwab, E. C., R. D. Shaver. J. G. Lauer, and J. G. Coors. 2003: “Estimating silage energy value and milk yield to rank corn hybrids”. J. Anim. Feed Sci. Technol. 109: 1-18. as well as in c) Undersander, D. J., W. T. Howard, and R. D. Shaver. 1993: “Milk per acre spreadsheet for combining yield and quality into a single term”. J. Prod. Ag. 6: 231 235.
In 2006 a total of 2 strip trials were conducted in Waterloo, N.Y. Trial setup, treatments, application, harvesting, sampling and quality analysis including calculation of milk production per ton and per acre followed the procedure described before.

corn [2] = assay: Strip field trials Maryland 2006: corn forage quality by NIRS and MILK 2006 calculated milk production
Experimental: as §1, §2, §3, §4, §5, §6, §7
In 2006 a total of 16 strip trials were conducted in Queen Ann County, MD. Trial setup, treatments, application, harvesting, sampling and quality analysis including calculation of milk production per ton and per acre followed the procedure described before.

corn [3] = assay: Strip field trials Wisconsin 2006: corn forage quality by NIRS and MILK 2006 calculated milk production
Experimental: as §1, §2, §3, §4, §5, §6, §7
In 2006 a total of 7 strip trials were conducted in Manitowoc County, Wis. Trial setup, treatments, application, harvesting, sampling and quality analysis including calculation of milk production per ton and per acre followed the procedure described before.

corn hybrids = assay: Field trial Wisconsin 2008 with eight corn hybrids: calculated milk production per ton of harvested biomass; conditions: for Calculated milk production, Milk (kg/t): Unity, Wis., 2008
Experimental: as §1, §2, §3, §4, §5, §6, §7
Eight different corn hybrid varieties were tested in a field trial in Unity, Wis., in 2008. Trial setup, application, harvesting, sampling and quality analysis including calculation of milk production per ton followed the procedure described before. Each hybrid was either treated with pyraclostrobin as described before or untreated. The quality data was converted into milk production per ton of harvested biomass for each hybrid as described above.

[4] = N.Y. 2006, vs untreated part of field
[5] = average of 2 strip trials, N.Y. 2006, 110 g pyraclostrobin per ha at tassel emergence
[6] = MD 2006, vs untreated part of field
[7] = average of 16 strip trials, MD 2006, 110 g pyraclostrobin per ha at tassel emergence
[8] = Wis. 2006, vs untreated part of field
[9] = average of 7 strip trials, Wis. 2006, 110 g pyraclostrobin per ha at tassel emergence
[10] = Example 4.5, hybrid N27B CBLLRW

## COC(=O)N(OC)c1ccccc1COc1ccn(-c2ccc(Cl)cc2)n1 [Pyraclostrobin, pyraclostrobin]
Corn [1]; [4]
  % CP, % Difference to Untreated: +6.0%
  % Dry Matter, % Difference to Untreated: −2.2%
  % NDFD, % Difference to Untreated: +19.3%
  % Starch, % Difference to Untreated: +15.3%
  Milk (kg/t), % Difference to Untreated: +21.2%
Corn [1]; N.Y. 2006, vs untreated part of field, decrease means more energy content
  % NDF, % Difference to Untreated: −16.8%
Corn [1]; [5]
  crude protein content (% CP): 6.52%
  in vitro 48-hour digestible NDF expressed as percent of NDF (% NDFD): 51.30%
  neutral detergent fiber content (% NDF): 38.18%
  starch content (% Starch): 42.42%
Corn [1]; average of 2 strip trials, N.Y. 2006, 110 g pyraclostrobin per ha, MILK 2006 calculation
  calculated value for milk produced per ton of silage (Milk (kg/t)): 1653 kg/t
Corn [1]; average of 2 strip trials, Waterloo, N.Y., 2006, 110 g pyraclostrobin per ha at tassel emergence
  dry matter content (% Dry Matter): 36.45%
Corn [2]; [6]
  % CP, % Difference to Untreated: +6.0%
  % NDFD, % Difference to Untreated: +3.9%
  % Starch, % Difference to Untreated: +10.2%
  Milk (kg/t), % Difference to Untreated: +5.9%
  TDN % of DM, % Difference to Untreated: +3.6%
Corn [2]; MD 2006, vs untreated part of field, decrease means more energy content
  % NDF, % Difference to Untreated: −4.8%
Corn [2]; [7]
  in vitro 48-hour digestible NDF expressed as percent of NDF (% NDFD): 60.6%
  neutral detergent fiber content (% NDF): 45.9%
  starch content (% Starch): 28.2%
  total digestible nutrients as percent of dry matter (TDN % of DM): 70.0%
Corn [2]; average of 16 strip trials, MD 2006, 110 g pyraclostrobin per ha, MILK 2006 calculation
  calculated value for milk produced per ton of silage (Milk (kg/t)): 1730 kg/t
Corn [2]; average of 16 strip trials, Queen Ann County, MD, 2006, Headline 0.44 L/ha (110 g pyraclostrobin per ha) at tassel emergence
  crude protein content (% CP): 7.1%
Corn [3]; [8]
  % CP, % Difference to Untreated: +4.2%
  % NDFD, % Difference to Untreated: +13.2%
  % Starch, % Difference to Untreated: +13.7%
  Milk (kg/t), % Difference to Untreated: +14.0%
Corn [3]; Wis. 2006, vs untreated part of field, decrease means more digestibility
  % ADF, % Difference to Untreated: −16.2%
Corn [3]; Wis. 2006, vs untreated part of field, decrease means more energy content
  % NDF, % Difference to Untreated: −13.4%
Corn [3]; average of 7 strip trials, Manitowoc County, Wis., 2006, 110 g pyraclostrobin per ha at tassel emergence
  crude protein content (% CP): 7.5%
Corn [3]; [9]
  acid detergent fiber content (% ADF): 22.2%
  in vitro 48-hour digestible NDF expressed as percent of NDF (% NDFD): 67.6%
  neutral detergent fiber content (% NDF): 39.5%
  starch content (% Starch): 37.4%
Corn [3]; average of 7 strip trials, Wis. 2006, 110 g pyraclostrobin per ha, MILK 2006 calculation
  calculated value for milk produced per ton of silage (Milk (kg/t)): 1815 kg/t
Corn hybrids; Example 4.1, hybrid DS93VT3
  Milk, % Difference to Untreated: +9.6%
  Calculated milk production, Milk (kg/t): 1608 kg/t
Corn hybrids; Example 4.2, hybrid S4900VT
  Milk, % Difference to Untreated: +17.5%
  Calculated milk production, Milk (kg/t): 1581 kg/t
Corn hybrids; Example 4.3, hybrid 3114VT3
  Milk, % Difference to Untreated: +7.1%
  Calculated milk production, Milk (kg/t): 1648 kg/t
Corn hybrids; Example 4.4, hybrid 491VT3
  Milk, % Difference to Untreated: +10.9%
  Calculated milk production, Milk (kg/t): 1643 kg/t
Corn hybrids; [10]
  Milk, % Difference to Untreated: +22.0%
  Calculated milk production, Milk (kg/t): 1549 kg/t
Corn hybrids; Example 4.6, hybrid DS93VT3
  Milk, % Difference to Untreated: +20.9%
  Calculated milk production, Milk (kg/t): 1600 kg/t
Corn hybrids; Example 4.7, hybrid DKC48-37
  Milk, % Difference to Untreated: +8.8%
  Calculated milk production, Milk (kg/t): 1684 kg/t
Corn hybrids; Example 4.8, hybrid DS93VT3
  Milk, % Difference to Untreated: +8.3%
  Calculated milk production, Milk (kg/t): 1632 kg/t
Corn hybrids; across the eight tested different corn hybrids
  milk production per ton of harvested corn biomass, result in words: improves the milk production per ton of harvested corn biomass
